In paper PMC6175062, “Gaining Mechanistic Insight Into Coproporphyrin I as Endogenous Biomarker for OATP1B‐Mediated Drug–Drug Interactions Using Population Pharmacokinetic Modeling and Simulation” (Clinical Pharmacology and Therapeutics, 2018):
Several values for one entry are separate records, joined by “and”; a condition that tells them apart may be missing. Identical values can stand only once. Like-named read-outs stand apart in the source and are kept apart here.

Columns and labels:
OATP = details: cited from earlier work
[1] = Population PK (turnover) model of CPI plasma and urine data with/without rifampicin; format: in vivo, human
Description: (§1) Individual plasma and urine data were obtained from a previous study in 12 healthy male subjects.6 The study was split into three occasions (OCC1–3) with a 7‐day washout period between OCC1 and 2 and OCC2 and 3. During each occasion, baseline CPI urine and plasma samples were collected (Figure S2). A single 600‐mg oral dose of RIF and a single 5‐mg oral dose of RSV were administered to the volunteers in OCC1 and OCC2, respectively. Finally, in OCC3 the same respective doses of RIF and RSV were coadministered to healthy volunteers. Plasma (RIF, RSV, and CPI) were collected at predefined timepoints over the 24‐h period following administration of RIF and/or RSV. Urine samples were collected over one time interval (−7 to 0 h) for the pretreatment sample (CPI monitored) and two subsequent intervals (0–7 h and 7–24 h) for posttreatment samples of CPI and RSV. The total number of plasma samples for modeling purposes were 276 (OCC1 = 144, OCC3 = 132), 420 (OCC1 = 144, OCC2 = 144, OCC3 = 132), and 264 (OCC2 = 132, OCC3 = 132) for RIF, CPI, and RSV, respectively, whereas the total number of urine samples were 102 (pretreatment = 34, posttreatment = 68) and 44 for CPI and RSV, respectively. No subjects enrolled in the clinical study had OATP1B1*5 or OATP1B1*15 mutations, associated with altered OATP1B1 activity.
(§2) Population PK models were developed sequentially for analysis of RIF, CPI, and RSV plasma and urine data using nonlinear mixed‐effects modeling software, NONMEM, with first‐order conditional estimation method.32 Statistical analysis, GOF plots, and other graphical analysis were conducted in MATLAB. The structural models for RIF and RSV (Supplementary Material) were selected based on population PK models available in the literature.34, 35 An exponential model was used to describe interindividual variability random‐effects parameters and IOV was evaluated for the model parameters; occasions were defined as periods of different visits following recruitment or washout periods. Covariates and random‐effects parameters (IIV and IOV) were retained in the models when there was a significant change in objective function and improvement in GOF plots. The incorporation of IIV and IOV in the models is shown in Equation 2: (2) θik=θ⋅e^ηi+κik where θ ik is the parameter for i^th individual on k^th occasion, θ is the population (typical individual) parameter, η i is the parameter that describes the deviation of the i^th individual parameter from the population (IIV), and k ik the parameter that describes the deviation of the i^th individual from the population in addition to η ik at the k^th occasion (IOV). Both random effect parameters (η ik and k ik) are assumed to be randomly distributed with a mean of zero and the variances are estimated during analysis. Proportional or additive or combination of proportional and additive residual error models were investigated for the residuals.
The plasma concentrations of the endogenous biomarker CPI were described using a turnover model (Equation 3).36 Simultaneous fitting of individual CPI plasma and urine data in the presence and absence of RIF was performed. In the final model, RIF inhibited biliary elimination (CL b,CPI) of CPI, whereas its renal clearance (CL R,CPI) and k syn were not affected. The rate of change of CPI plasma concentration under baseline and RIF condition is shown in Equations 3 and 4, respectively, whereas change in CPI amount in urine over time is shown in Equation 5. (3) dCCPI/dt=[ksyn−CLb,CPI⋅CCPI−CLR,CPI⋅CCPI]⋅1/VCPI (4) dCCPI/dt=[ksyn−CLb,CPI⋅CCPI/1+CRIF/KiCPI−CLR,CPI⋅CCPI]⋅1/VCPI (5) dUCPI/dt=CLR,CPI⋅CCPI where C CPI is its plasma concentration, U CPI is the CPI amount in urine, t is time, k syn is the zero‐order synthesis rate, Ki CPI is RIF transporter inhibition constant using CPI as a probe, V CPI is the volume of distribution of CPI and C RIF is RIF plasma concentration (linked to RIF model). […]

[2] = Analysis of individual clinical CPI and rosuvastatin data (baseline, AUCR, fT); format: in vivo, human; details: for mean fraction eliminated via transporters (fT): from AUC with/without RIF (Equation 1)
Description: as §1
Variability in baseline CPI plasma concentration between the three occasions was assessed and a one‐way analysis of variance (ANOVA) test was used to determine any significant differences. CPI and RSV plasma concentrations in the presence/absence of RIF were used to calculate the area under the curve (AUC) using the trapezoid function in MATLAB (MathWorks, Natick, MA, 2015a). Subsequently, the fold change in RSV and CPI AUC of each individual and the fraction eliminated by transporters (fT) for each probe was calculated (Equation 1). (1) fT=1−AUC(control)/AUC(+inhibitor)

[3] = Population PK model of rosuvastatin plasma and urine data with/without rifampicin; format: in vivo, human
Description: as §1, §2
Based on the available plasma and urine data, a two compartment first order absorption and elimination model was used to describe the PK of RSV in the subjects. The model was parameterised using [picture] , volume of distribution of central ( [picture] ) and peripheral compartments ( [picture] ), inter-compartmental clearance ( [picture] ), biliary ( [picture] ) and renal ( [picture] ) clearance parameters. Analogous to CPI, inhibition of [picture] by RIF was incorporated in the rate of change of RSV plasma concentration, whereas it was assumed that RIF has no effect on RSV renal elimination (Eq 2). The rate of change of RSV amount in urine over time is shown in Eq3.
where [picture] and [picture] are RSV concentrations in central (plasma) and peripheral compartments, [picture] is the amount in depot compartment, [picture] is RSV amount in the urine and [picture] is RIF transporter inhibition constant using RSV as a probe. […]

In the case of `C=C[C@@H]1C[C@]1(NC(=O)[C@@H]1C[C@@H]2CN1C(=O)[C@H](C(C)(C)C)NC(=O)O[C@@H]1C[C@H]1CCCCCc1nc3ccc(OC)cc3nc1O2)C(=O)NS(=O)(=O)C1CC1.O` [Grazoprevir], the “Fold Change in AUC of rosuvastatin” value (OATP; inhibitor 200 mg, rosuvastatin 10 mg, ref (16)) is listed as 1.59 fold.

For `C=C[C@@H]1C[C@]1(NC(=O)[C@@H]1C[C@@H](Oc2ncc(OC)c3ccc(Cl)cc23)CN1C(=O)[C@@H](NC(=O)OC(C)(C)C)C(C)(C)C)C(=O)NS(=O)(=O)C1CC1` [Asunaprevir], the “Fold Change in AUC of rosuvastatin” value (OATP; inhibitor 200 mg, rosuvastatin 10 mg, ref (14)) is listed as 1.41 fold.

For `COC[C@H]1C[C@@H](c2ncc(-c3ccc4c(c3)COc3cc5c(ccc6nc([C@@H]7CC[C@H](C)N7C(=O)[C@@H](NC(=O)OC)C(C)C)[nH]c65)cc3-4)[nH]2)N(C(=O)[C@H](NC(=O)OC)c2ccccc2)C1` [Velpatasvir], the “Fold Change in AUC of rosuvastatin” value (OATP; inhibitor 100 mg, rosuvastatin 10 mg, ref (18)) is given as 2.69 fold.

For `COc1ccc2c(O[C@@H]3C[C@H]4C(=O)N[C@]5(C(=O)NS(=O)(=O)C6CC6)C[C@H]5/C=C\CCCCN(C)C(=O)[C@@H]4C3)cc(-c3nc(C(C)C)cs3)nc2c1C` [Simeprevir], the “Fold Change in AUC of rosuvastatin” value (OATP; inhibitor 150 mg, rosuvastatin 10 mg, ref (19)) is listed as 2.8 fold.

For `CCC(C)n1ncn(-c2ccc(N3CCN(c4ccc(OCC5COC(Cn6cncn6)(c6ccc(Cl)cc6Cl)O5)cc4)CC3)cc2)c1=O` (stereo not shown) [Itraconazole], the “Fold Change in AUC of rosuvastatin” value (OATP; inhibitor 200 mg, rosuvastatin 0.025 mg, ref (15)) is listed as 1.78 fold.

With coproporphyrin I [CPI] the “maximal contribution of biliary clearance to total clearance” value ([1]; basal conditions) was > 85% and 88%, the “VCPI, population estimate (SE%)” value ([1]; baseline) was 6.59 (12) L and the “ksyn (zero-order synthesis rate), population estimate (SE%)” value ([1]; endogenous CPI) was 12.7 (6) nM/h. For the same compound, the “VCPI (RIF), population estimate (SE%)” value ([1]; in the presence of RIF) was 3.4 (13) L, the “CLR,CPI (renal clearance), population estimate (SE%)” value ([1]; in vivo) was 1.64 (6) L/h and the “reduction of estimated VCPI in the presence of RIF” value ([1]; in vivo) was ~50%. The “mean fraction eliminated via transporters (fT)” value [2] was 0.76.

For `Cc1cnc(C(=O)N[C@H]2CCCCC/C=C\[C@@H]3C[C@@]3(C(=O)NS(=O)(=O)C3CC3)NC(=O)[C@@H]3C[C@@H](Oc4nc5ccccc5c5ccccc45)CN3C2=O)cn1` [Paritaprevir], the “Fold Change in AUC of rosuvastatin” value (OATP; inhibitor 150 mg, rosuvastatin 10 mg, ref (17)) is listed as 2.6 fold.

For `CC[C@H]1OC(=O)[C@H](C)[C@@H](O[C@H]2C[C@@](C)(OC)[C@@H](O)[C@H](C)O2)[C@H](C)[C@@H](O[C@@H]2O[C@H](C)C[C@H](N(C)C)[C@H]2O)[C@](C)(OC)C[C@@H](C)C(=O)[C@H](C)[C@@H](O)[C@]1(C)O` [Clarithromycin], the “Fold Change in AUC of rosuvastatin” value (OATP; inhibitor 500 mg, rosuvastatin 0.025 mg, ref (15)) is given as 1.56 fold.

For `CC(C)c1nc(N(C)S(C)(=O)=O)nc(-c2ccc(F)cc2)c1/C=C/[C@@H](O)C[C@@H](O)CC(=O)O` [RSV, rosuvastatin], the “QRSV, population estimate (SE%)” value ([3]; RSV alone) was 45.3 (19) L/h, the “V1RSV, population estimate (SE%)” value ([3]; RSV alone) was 430 (12) L and the “V2RSV, population estimate (SE%)” value ([3]; RSV alone) was 865 (37) L. The “QRSV (RIF), population estimate (SE%)” value ([3]; co-administered with RIF) was 5.03 (18) L/h, the “V1RSV (RIF), population estimate (SE%)” value ([3]; co-administered with RIF) was 2.98 (50) L and the “V2RSV (RIF), population estimate (SE%)” value ([3]; co-administered with RIF) was 128 (42) L. The “contribution of biliary clearance to elimination” value ([3]; in vivo) was 94%, the “reduction of V1RSV in the presence of RIF” value ([3]; in vivo) was > 90% and the CL renal ([3]; male, human, in vivo, 5 mg) was 141 mL/min. The “CLb,RSV, population estimate (SE%)” value ([3]; male, human, in vivo, 5 mg) was 124 (11) L/h, the “kaRSV, population estimate (SE%)” value ([3]; single 5-mg oral dose) was 0.287 (9) h^−1 and the “change in Cmax (fold increase) following RIF” value ([2]; RIF 600 mg co-administered) was 13.2 fold. The “range of estimated individual fT” value ([2]; from AUC with/without RIF) was 0.66–0.88 and the “mean fraction eliminated via transporters (fT)” value [2] was 0.79.
